Experiments:
mice [1] = experiment: Cytokine induction (IL-6, IP-10) in mice after intravenous administration; format: in vivo; set-up: IL-6 / IP-10: unit not given here; conditions: 0.5 mpk, 6 hours
Source text: The introduction of foreign material into a mammalian body induces an innate immune response that promotes cytokine production. Such immune responses to, for example, nanoparticle compositions including therapeutic and/or prophylactics, are undesirable. The induction of certain cytokines is thus measured to evaluate the […] of nanoparticle compositions. The concentrations of various cytokines in mice upon intravenous administration of nanoparticle compositions presented in Table 1A at a dosage of 0.5 mpk was measured at 6 hours. The standard MC3 formulation and a PBS control were also tested. As is evident in Table 7, IL-6 induction was highest for compositions including Compounds 1, 3, 9, 19, and 26, while IP-10 induction was highest for compositions including Compounds 3, 4, 7, 20, and 26. IL-6 induction was lowest for compositions including Compounds 4, 11, 12, and 28. IP-10 induction was lowest for compositions including Compounds 10, 11, 12, 13, 15, 17, and 18.
The expression of hEPO and cytokine induction in mice intravenously administered a nanoparticle composition at a dose of 0.5 mpk were measured at 3, 6, and 24 hours. […] The expression of hEPO in mice intramuscularly administered a nanoparticle composition from Table 1B at a dose of 0.01 mpk were measured at 3, 6, and 24 hours. […] (see also FIG. 9.)

mice [2] = experiment: Luc expression (total flux) after intramuscular administration; format: in vivo; conditions: 6 hours after intramuscular administration, Luc mRNA and H10 mRNA
Method: The numbers 1-7 in this figure correspond to MC3, Compounds 168-170, and 173-175 respectively.
In order to monitor how effectively various nanoparticle compositions deliver therapeutic and/or prophylactics to targeted cells, different nanoparticle compositions including a particular therapeutic and/or prophylactic (for example, a modified or naturally occurring RNA such as an mRNA) are prepared and administered to rodent populations. Mice are intravenously, intramuscularly, intraarterially, or intratumorally administered a single dose including a nanoparticle composition with a formulation such as those provided in Example 3. In some instances, mice may be made to inhale doses. Dose sizes may range from 0.001 mg/kg to 10 mg/kg, where 10 mg/kg describes a dose including 10 mg of a therapeutic and/or prophylactic in a nanoparticle composition for each 1 kg of body mass of the mouse. A control composition including PBS may also be employed.
The total flux (measured by area under the curve, AUC) induced by administration of a formulation including a given lipid relative to that induced by administration of a formulation including MC3 was also measured for several lipids.
Sample formulations including both modified luciferase (Luc) mRNA and H10 mRNA were prepared and administered intramuscularly and the resulting expression and immunogenicity were evaluated simultaneously. Formulations including compounds according to Formula (I), (IA), (II), (IIa), (IIb), (IIc), (IId) or (IIe) were prepared and administered at doses of 0.001 and 0.01 mpk (e.g., doses of 0.0005 mpk of a formulation including Luc mRNA and a formulation including H10 mRNA or doses of 0.005 mpk of a formulation including Luc mRNA and a formulation including H10 mRNA).
Sample formulations including modified luciferase (Luc) mRNA prepared and administered intramuscularly and the resulting expression and immunogenicity were evaluated simultaneously. Formulations including compounds according to Formula (I), (IA), (II), (IIa), (IIb), (IIc), (IId) or (IIe) were prepared and administered at dose of […] 0.01 mpk.
The fluxes measured upon intravenous and intramuscular administration are compared in Table 6. Fluxes are presented as fold increase over that measured for MC3 formulations.

SMILES	IL-6 (mice [1])	Total flux (p/s) 0.001 mpk Dose (mice [2])	Total flux (p/s) 0.01 mpk Dose (mice [2])	IP-10 (mice [1])
CCCCCCCCCN(CCCO)CCCCCCCC(=O)OC(CCCCCCCC)CCCCCCCC [Compound 7, Heptadecan-9-yl 8-((3-hydroxypropyl)(nonyl)amino)octanoate]	116.35	3.65E+06 p/s	7.48E+07 p/s	
CCCCCCCCC(CCCCCCCC)OC(=O)CCCCCCCN(CCO)CCCCCCCC(=O)OCC1CC1CCCCCC (stereo not drawn) [Compound 28, Heptadecan-9-yl 8-((8-((2-hexylcyclopropyl)methoxy)-8-oxooctyl)(2-hydroxyethyl)amino)octanoate]		6.73E+05 p/s	5.56E+06 p/s	283.13
CCCCCCCCCOC(=O)CCCCCCCN(CCCCCCCC(=O)OC(CCCCCCCC)CCCCCCCC)C1CCCCC1O (stereo not drawn) [Compound 22, Heptadecan-9-yl 8-((2-hydroxycyclohexyl)(8-(nonyloxy)-8-oxooctyl)amino)octanoate]	90.54			976.50
CCCCCCCCCCCCCCN(CCO)CCCCCCCC(=O)OC(CCCCCCCC)CCCCCCCC [Compound 2, Heptadecan-9-yl 8-((2-hydroxyethyl)(tetradecyl)amino)octanoate]	70.95	3.55E+06 p/s	6.16E+07 p/s	468.86
CCCCCCCCCOC(=O)CCCCCCCN(CCO)CCCCCCCCCC(=O)OC(CCCCCCCC)CCCCCCCC [Compound 23, Heptadecan-9-yl 10-((2-hydroxyethyl)(8-(nonyloxy)-8-oxooctyl)amino) decanoate]	94.00	8.27E+06 p/s	2.20E+06 p/s	1015.95
CCCCCCCCCCCCN(CCO)CCCCCCCCCCCC(=O)OC [Compound 137, Methyl 12-(dodecyl(2-hydroxyethyl)amino)dodecanoate]	130.82	7.57E+04 p/s	8.09E+04 p/s	234.35
CCCCCCCCCOC(=O)CCCCCCCN(CCCCCCCC(=O)OC(CCCCCCCC)CCCCCCCC)C[C@H](C)O [Compound 12, Heptadecan-9-yl (S)-8-((2-hydroxypropyl)(8-(nonyloxy)-8-oxooctyl)amino)octanoate]		8.02E+04 p/s	8.90E+05 p/s	
CCCCCCCCCN(CCCCCCCC(=O)OC(CCCCCCCC)CCCCCCCC)CCCn1ccnc1 [Compound 8, Heptadecan-9-yl 8-((3-(1H-imidazol-1-yl)propyl)(nonyl)amino)octanoate]		7.81E+05 p/s	3.32E+06 p/s	
CCCCCCCCCCCCCCCCCCN(CCO)CCCCCCCC(=O)OC(CCCCCCCC)CCCCCCCC [Compound 1, Heptadecan-9-yl 8-((2-hydroxyethyl)(octadecyl)amino)octanoate]				687.14
CCCCCCCCCOC(=O)CCCCCCCN(CCCCCCCC(=O)OC(CCCCCCCC)CCCCCCCC)CCOC [Compound 15, Heptadecan-9-yl 8-((2-methoxyethyl)(8-(nonyloxy)-8-oxooctyl)amino)octanoate]	64.65			
CCCCCCCCCOC(=O)CCCCCCCN(CCCCCCCC(=O)OC(CCCCCCCC)CCCCCCCC)CCCOC [Compound 16, Heptadecan-9-yl 8-((3-methoxypropyl)(8-(nonyloxy)-8-oxooctyl)amino) octanoate]	32.01			206.75
CCCCC/C=C\C/C=C\CCCCCCCCN(CCO)CCCCCCCC(=O)OCCCCCCCCC [Compound 136, Nonyl 8-((2-hydroxyethyl)((9Z,12Z)-octadeca-9,12-dien-1-yl)amino)octanoate]	28.69			887.91
CCCCCCCCCOC(=O)CCCCCCCN(CCO)CCCCCCCC(=O)OC(CCCCCC)CCCCCCCC (stereo not drawn) [Compound 32, nonyl 8-((2-hydroxyethyl)(8-oxo-8-(pentadecan-7-yloxy)octyl)amino) octanoate]		7.37E+05 p/s	1.03E+07 p/s	
CCCCCCCCCOC(=O)CCCCCCCN(CCCCCCCC(=O)OC(CCCCCCCC)CCCCCCCC)CCN(C)C [Compound 14, Heptadecan-9-yl 8-((2-(dimethylamino)ethyl)(8-(nonyloxy)-8-oxooctyl)amino)octanoate]	75.29			621.49
CCCCCCCCCOC(=O)CCCCCCCN(CCCCCCCC(=O)OC(CCCCCCCC)CCCCCCCC)CC(C)O (stereo not drawn) [Compound 10, Heptadecan-9-yl 8-((2-hydroxypropyl)(8-(nonyloxy)-8-oxooctyl)amino) octanoate]	88.81			
CCCCCCCCCOC(=O)CCCCCCCN(CCO)CCCCCCCC(=O)OC(CC)CCCCCCCC (stereo not drawn) [Compound 35, nonyl 8-((2-hydroxyethyl)(8-oxo-8-(undecan-3-yloxy)octyl)amino) octanoate]		2.45E+06 p/s	8.12E+06 p/s	
CCCCCCCCCOC(=O)CCCCCCCN(CCO)CCCCCC(=O)OC(CCCCCCCC)CCCCCCCC [Compound 27, Nonyl 8-((6-(heptadecan-9-yloxy)-6-oxohexyl)(2-hydroxyethyl)amino) octanoate]	161.07	2.55E+06 p/s	3.17E+07 p/s	345.56
CCCCCCCCCOC(=O)CCCCCCCN(CCCCCCCC(=O)OC(CCCCCCCC)CCCCCCCC)CC(O)CC (stereo not drawn) [Compound 13, Heptadecan-9-yl 8-((2-hydroxybutyl)(8-(nonyloxy)-8-oxooctyl)amino) octanoate]	29.07			
CCCCCCCCCCCOC(=O)CCCCCN(CCO)CCCCCC(=O)OCCCCCCCCCCC [Compound 141, Diundecyl 6,6′-((2-hydroxyethyl)azanediyl)dihexanoate]	327.15			1072.04
CCCCCCCCCOC(=O)CCCCCCCN(CCCCCCCC(=O)OC(CCCCCCCC)CCCCCCCC)CCOC(C)=O [Compound 9, Heptadecan-9-yl 8-((2-acetoxyethyl)(8-(nonyloxy)-8-oxooctyl)amino) octanoate]				366.53
CCCCCCCCCOC(=O)CCCCCCCN(CCCO)CCCCCCCC(=O)OC(CCCCCCCC)CCCCCCCC [Compound 19, Heptadecan-9-yl 8-((3-hydroxypropyl)(8-(nonyloxy)-8-oxooctyl)amino) octanoate]		3.28E+06 p/s	2.96E+07 p/s	1468.94
CCCCCCCC/C=C\COC(=O)CCCCCN(CCO)CCCCCC(=O)OC/C=C\CCCCCCCC [Compound 140, Di((Z)-undec-2-en-1-yl) 6,6′-((2-hydroxyethyl)azanediyl)dihexanoate]	282.82	2.03E+05 p/s	6.09E+05 p/s	187.83
CCCCCCCCCOC(=O)CCCCCCCN(CCO)CCCCCCCC(=O)OC(CCCC)CCCC [Compound 57, nonan-5-yl 8-((2-hydroxyethyl)(8-(nonyloxy)-8-oxooctyl)amino) octanoate]		1.16E+05 p/s	2.23E+05 p/s	
CCCCCC/C=C\COC(=O)CCCCCCCN(CCO)CCCCCCCC(=O)OC/C=C\CCCCCC [Compound 139, Di((Z)-non-2-en-1-yl) 8,8′-((2-hydroxyethyl)azanediyl)dioctanoate]	23.57			153.36
CCCCCCCCCOC(=O)CCCCCCCN(CCCCCCCC(=O)OC(CCCCCCCC)CCCCCCCC)CCOCCN(C)C [Compound 17, Heptadecan-9-yl 8-((2-(2-(dimethylamino)ethoxy)ethyl) (8-(nonyloxy)-8-oxooctyl)amino)octanoate]	138.43			

Source: patent US12404232B2, “Compounds and compositions for intracellular delivery of therapeutic agents” (ModernaTX, Inc., priority 2015, dated 2025)
